From patent US20120128654A1, “Allantoin Administration for the Treatment of Neurodegenerative Disease and Neurotrauma” (UNIVERSITY OF CINCINNATI, priority 2009, published 2012)

Assays:
nigral THir neurons = assay: Unbiased stereological counts of THir cells in the substantia nigra after striatal 6-OHDA; format: in vivo, Sprague Dawley rats; settings: for number of surviving THir neurons in the lesioned SN relative to the intact side: s.c. pellets 3 days prior to intrastriatal 6-OHDA, 6 weeks post-6-OHDA (experiment 1); for protection of nigral THir neurons against striatal 6-OHDA infusion: s.c. pellets, 6 weeks post-6-OHDA, vs control
Method: (§1) Rats were anesthetized prior to surgery with Equi-Thesin (0.3 ml/100 g body weight i.p.; chloral hydrate 42.5 mg/ml+sodium pentobarbital 9.72 mg/ml), their heads shaved, and then they were placed in a stereotaxic frame. Their skin was swabbed with Betadyne followed by 70% ETOH. The scalp was then opened to expose the skull. Two 1 mm holes were drilled into the skull and rats were injected in two sites in the striatum with 6-OHDA (MP Biomedicals, Solon, Ohio; 5 μg/μl 6-OHDA in 0.2% ascorbic acid, 0.9% saline solution). The coordinates for these injections were AP −1.6 mm, ML +2.4 mm, DV −4.2 mm and AP −0.2 mm, +ML 2.6 mm, DV −7.0 mm. The needle was zeroed at the skull directly above the injection site in order to target the DV coordinate. For each injection, the needle was lowered slowly to the injection site and 1 minute elapsed before injection commenced, 6-OHDA was injected at 0.5 μl/minute and at the end of the injection the needle was held in place for an additional 2 minutes prior to retraction. The wound area was cleaned with Betadine solution and the scalp was closed with surgical wound clips. This lesion paradigm results in a progressive loss of TH phenotype and frank DA cell death.
Animals were deeply anesthetized (60 mg/kg, pentobarbital, i.p.) and perfused intracardially with warm 0.9% saline containing 1 ml/L 10,000 USP heparin followed by ice-cold 0.9% saline. For immunoshistochemistry brains were removed, post fixed for 24 hours in 4% paraformaldehyde and transferred to 30% sucrose in 0.1M PO4 buffer. For determination of purine levels brains were immediately removed and flash frozen in 3-methyl butane. Brains were stored at −80° C. until analysis.
Brains were frozen on dry ice and sectioned at a 40 μm thickness using a sliding microtome. Every sixth section through the SN was processed for labeling with antisera against TH. Following blocking in 10% normal goat serum, tissue was incubated in primary antisera directed against TH (Chemicon MAB318, mouse anti TH 1:4,000) overnight at room temperature. Following primary incubation, sections were incubated in biotinylated secondary antisera against mouse IgG (Chemicon AP124B, 1:400) followed by the Vector ABC detection kit employing horseradish peroxidase (Vector Laboratories, Burlingame, Calif.). Antibody labeling was visualized by exposure to 0.5 mg/ml 3,3′ diaminobenzidine (DAB) and 0.03% H2O2 in Tris buffer. Sections were mounted on subbed slides, dehydrated to xylene and coverslipped with Cytoseal (Richard-Allan Scientific, Waltham, Mass.).
Unbiased stereological counts of THir cells were performed using a BX52 Olympus microscope (Olympus America Inc.) interfaced with Microbrightfield stereological software and a Microfire CCD camera (Optronics, Goleta, Calif.). Utilizing 2 μm guard zones and a 50 μm×50 μm counting frame a grid size of 112 μm×183 μm was employed to assure that all coefficient of error values were ≦0.10. Using the optical fractionator principle, the regions of interest were individually outlined under a low magnification (1.25×). Using a 60× magnification lens with a 1.4 N/A the section thickness was empirically determined by first bringing the top of the section into focus and then using Microbrightfield software to step through the z-axis in 1 μm increments until the very bottom of the section was in focus. […]

[1] = test system: NOX-1 expression in the SN; assay: NOX-1 immunohistochemistry, counts of NOX-1ir cells in the SN after 6-OHDA; format: in vivo, Sprague Dawley rats
Method: as §1
Brains were frozen on dry ice and sectioned at a 40 μm thickness using a sliding microtome. Every sixth section through the midbrain was for incubated 30 minutes in sodium citrate 10 mM at 80 degrees Celsius. Following blocking in 10% normal goat serum, tissue was incubated in primary antisera directed against NOX-1 (Santa Cruz Biotechnology, Santa Cruz, Calif., 1:1000). Following primary incubation, sections were incubated in biotinylated secondary antisera against rabbit IgG (Vector Laboratory, Burlingame, Calif., 1:200) followed by the Vector ABC detection kit employing horseradish peroxidase. Antibody labeling was visualized by exposure to 0.5 mg/ml 3,3′ diaminobenzidine (DAB) and 0.03% H2O2 in Tris buffer. Sections were mounted on subbed slides, dehydrated to xylene and coverslipped with Cytoseal.
Absolute counts of NOX-1ir cells was performed using a BX52 Olympus microscope interfaced with Microbrightfield stereological software and a Microfire CCD camera. Counts of NOX1-ir neurons were made at 20× and the sum of these values was adjusted according to the method of Abercrombie (Abercrombie, M., Estimation of nuclear populations from microtome sections, Anat. Rec. 94:239-247 (1946)). To assure that no cells were excluded or counted more than once, each cell was marked utilizing StereoInvestigator 7.0 (Microbrightfield Williston, Vt.). The total number of markers recorded by the software was utilized to estimate the total number of NOX-1ir cells (Fawcettt, et al., Dopaminergic neuronal survival and the effects of bFGF in explant, three dimensional and monolayer cultures of embryonic rat ventral mesencephalon, Exp. Brain Res. 106:275-82 (1995)).
Increased NOX-1 expression is directly linked to increased oxidative stress (Vignais, P., The superoxide-generating NADPF oxidase: structural aspects and activation mechanism, Cell Mol. Life Sci. 59:1428-59 (2002)). To determine the effect of ALL on NOX-1 expression in the SN and Red Nucleus, animals received either ALL pellets (n=6) or sham implantation (n=6). Pellet implantation surgery took place 3 days prior to intrastriatal 6-OHDA infusion. Twenty-four hours post-lesion, animals were sacrificed via intracardial saline perfusion and the SN was processed for NOX-1 immunohistochemistry.

[2] = in vivo; cited from earlier work
[3] = test system: cortex and hippocampus apoptosis; settings: twice daily i.p., neonatal MCA occlusion; cited from earlier work
retinal ganglion cells = settings: repeated i.p. every eight hours, optical nerve transection, adult rats; cited from earlier work
[4] = s.c. ALL pellets 3 days prior to 6-OHDA, twenty-four hours post-lesion, vs untreated controls

SMILES | number of surviving THir neurons in the lesioned SN relative to the intact side (nigral THir neurons) | protection of nigral THir neurons against striatal 6-OHDA infusion (nigral THir neurons) | number of NOX-1ir cells in the SN ([1]; s.c. ALL pellets 3 days prior to 6-OHDA, overall treatment effect) | number of NOX-1ir cells in the 6-OHDA lesioned SN [1, 4] | number of NOX-1ir cells in the intact SN [1, 4] | number of NOX-1ir cells in the 6-OHDA lesioned SN ([1]; s.c. ALL pellets 3 days prior to 6-OHDA, twenty-four hours post-lesion, vs untreated controls, listed as ALL) | NOX-1 expression induced by 6-OHDA ([1]; s.c. allantoin pellets, SN) | antioxidant properties [2] | Cytochrome C expression in the cortex and hippocampus [3] | TUNEL staining in the cortex and hippocampus [3] | sparing of retinal ganglion cells (retinal ganglion cells)
NC(=O)NC1NC(=O)NC1=O (stereo not shown) [allantoin] | 61%±7.9% | significantly protected | decreased | significant decrease | significant decrease | significantly reduced | significantly reduced | antioxidant properties in vivo | – | – | –
OC[C@H]1O[C@@H](n2cnc3c(O)ncnc32)[C@H](O)[C@@H]1O [inosine] | 56%±9.0% | significantly protected | – | – | – | – | – | – | decreased | decreased | significant sparing
